{"source": "patent US7964647B2", "about": "(Mutual Pharmaceutical Company, Inc., priority 2007, dated 2011)", "tested_on": "patients with acute gout flare (acute gouty arthritic attack)", "assay": "Multicenter, randomized, double-blind, placebo-controlled dose comparison study in acute gout flare: efficacy (target joint pain)", "type": "in vivo, human", "conditions": "for Difference between treatment groups in mean change from baseline in target joint pain, High vs. Low / Difference between treatment groups in mean change from baseline in target joint pain, High vs. Placebo / Difference between treatment groups in mean change from baseline in target joint pain, Low vs. Placebo / Change from baseline in target joint pain, Mean / Change from baseline in target joint pain, Median / Difference between treatment groups in mean change from baseline in target joint pain score at 24 hours, High vs. Low / Difference between treatment groups in mean change from baseline in target joint pain score at 24 hours, High vs. Placebo / Difference between treatment groups in mean change from baseline in target joint pain score at 24 hours, Low vs. Placebo: LOCF, ITT", "from_the_text": "A sufficient number of patients are screened to enroll and randomize 300 patients (100 patients per treatment group) who meet the criteria of the American College of Rheumatology (ACR) for acute arthritis of gout.\nEfficacy assessment will be made based on patient and Investigator inputs. Patients will record pain severity and sleep interference on a study diary. The severity of pain for each joint affected by the acute gouty arthritic attack will be rated on an 11-point pain intensity numerical rating scale (PI-NRS) that ranges from 0 (“no pain”) to 10 (“worst possible pain”). […] Investigators will provide clinical assessments in the clinic at all Post-Flare Phase study visits, and at medically necessary intervening visits. For these assessments, each of the patient's joints affected by the acute gouty arthritic attack will be examined and signs and symptoms of inflammation will be rated (erythema [absent, present, or not assessable], swelling [0, “none” to 3, “severe”], and tenderness to touch [0, “none” to 3, “severe”]).\nThe target joint is identified during data analysis as that joint affected by the acute gout flare with the highest baseline pain score on the patient diary. Ties among maximum joint scores for an individual are resolved by random selection.\nThe secondary efficacy variables are assessments of magnitude of pain reduction, time to response, time to complete pain relief, and interference with sleep as recorded on patient diaries by the patient. Signs and symptoms of inflammation per Investigator's clinical assessments of the target joint are evaluated. Time to drop out (use of rescue medications) is also evaluated. Investigator global assessment of response to treatment is assessed.\nAnalyses will also be made on an Evaluable patient population with an Evaluable patient defined as one who, in addition to being included in the PP population, completed the randomized treatment course. The ITT population will be used for the evaluation of safety.\nStatistical tests for efficacy analysis are two-tailed with an alpha significance level of 0.05.\nThe sensitivity to alternate definitions of response (based both on magnitude of reduction from baseline as well as time point) will be evaluated as secondary endpoints. As additional sensitivity analyses, these tests will also be repeated for the PP and Evaluable populations if the sample sizes differ from the overall ITT population by more than 10%.\nChange in pain intensity, interference with sleep, time to 50% reduction in pain, and time to complete pain relief will be analyzed as continuous variables using analysis of covariance with study site, treatment group, and site by treatment interaction as independent variables for change in pain intensity and interference with sleep, with baseline score as a covariate. For the Investigator's clinical assessment of inflammation (erythema, swelling, and tenderness to touch) and Investigator's global assessment of response to treatment, the treatment groups will be compared using the Mantel-Haenszel chi-square test stratified on study site.", "key": {"[1]": {"conditions": "24 hours post first dose, High dose 4.8 mg, N = 52"}, "[2]": {"conditions": "24 hours post first dose, Low dose 1.8 mg, N = 74"}, "[3]": {"conditions": "32 hours post first dose, High dose 4.8 mg, N = 52"}, "[4]": {"conditions": "32 hours post first dose, Low dose 1.8 mg, N = 74"}, "[5]": {"conditions": "Early treatment start (within 4 hours)"}, "[6]": {"conditions": "Early treatment start (within 4 hours), High dose 4.8 mg"}, "[7]": {"conditions": "Early treatment start (within 4 hours), Low dose 1.8 mg"}, "[8]": {"conditions": "Hour 24, High dose 4.8 mg, n = 51"}, "[9]": {"conditions": "Hour 24, Low dose 1.8 mg, n = 74"}, "[10]": {"conditions": "Hour 32, High dose 4.8 mg, n = 51"}, "[11]": {"conditions": "Hour 32, Low dose 1.8 mg, n = 74"}, "[12]": {"conditions": "Late treatment start (after 4 hours)"}, "[13]": {"conditions": "Late treatment start (after 4 hours), High dose 4.8 mg"}}}
{"smiles": "COc1cc2c(c(OC)c1OC)-c1ccc(OC)c(=O)cc1[C@@H](NC(C)=O)CC2", "note": "[Colchicine, (−)-N-[(7S,12aS)-1,2,3,10-tetramethoxy-9-oxo-5,6,7,9-tetrahydrobenzo[a]heptalen-7-yl]-acetamide]", "values": [{"measurement": "Difference between treatment groups in mean change from baseline in target joint pain, High vs. Low", "setting": "24 hours post first dose", "value": 0.2}, {"measurement": "Difference between treatment groups in mean change from baseline in target joint pain, High vs. Placebo", "setting": "24 hours post first dose", "value": "−1.3"}, {"measurement": "Difference between treatment groups in mean change from baseline in target joint pain, Low vs. Placebo", "setting": "24 hours post first dose", "value": "−1.5"}, {"measurement": "Change from baseline in target joint pain, Mean", "setting": "[1]", "value": "−2.0"}, {"measurement": "Change from baseline in target joint pain, Median", "setting": "[1]", "value": "−2.0"}, {"measurement": "Change from baseline in target joint pain, Mean", "setting": "[2]", "value": "−2.2"}, {"measurement": "Change from baseline in target joint pain, Median", "setting": "[2]", "value": "−2.0"}, {"measurement": "Number (%) of responders, at least a 2-unit reduction in target joint pain score", "setting": "[1]", "value": "18 (34.6) Number (%)"}, {"measurement": "Number (%) of responders, at least a 2-unit reduction in target joint pain score", "setting": "[2]", "value": "32 (43.2) Number (%)"}, {"measurement": "Difference between treatment groups in mean change from baseline in target joint pain, High vs. Low", "setting": "32 hours post first dose", "value": 0.1}, {"measurement": "Difference between treatment groups in mean change from baseline in target joint pain, High vs. Placebo", "setting": "32 hours post first dose", "value": "−1.6"}, {"measurement": "Difference between treatment groups in mean change from baseline in target joint pain, Low vs. Placebo", "setting": "32 hours post first dose", "value": "−1.6"}, {"measurement": "Change from baseline in target joint pain, Mean", "setting": "[3]", "value": "−2.3"}, {"measurement": "Change from baseline in target joint pain, Median", "setting": "[3]", "value": "−2.0"}, {"measurement": "Change from baseline in target joint pain, Mean", "setting": "[4]", "value": "−2.4"}, {"measurement": "Change from baseline in target joint pain, Median", "setting": "[4]", "value": "−2.5"}, {"measurement": "Number (%) of responders, at least a 2-unit reduction in target joint pain score", "setting": "[3]", "value": "20 (38.5) Number (%)"}, {"measurement": "Number (%) of responders, at least a 2-unit reduction in target joint pain score", "setting": "[4]", "value": "34 (45.9) Number (%)"}, {"measurement": "Difference between treatment groups in mean change from baseline in target joint pain score at 24 hours, High vs. Low", "setting": "[5]", "value": 0.2}, {"measurement": "Difference between treatment groups in mean change from baseline in target joint pain score at 24 hours, High vs. Placebo", "setting": "[5]", "value": "−1.3"}, {"measurement": "Difference between treatment groups in mean change from baseline in target joint pain score at 24 hours, Low vs. Placebo", "setting": "[5]", "value": "−1.5"}, {"measurement": "Change from baseline in target joint pain score at 24 hours post first dose, Mean", "setting": "[6]", "value": "−2.0"}, {"measurement": "Change from baseline in target joint pain score at 24 hours post first dose, Median", "setting": "[6]", "value": "−2.0"}, {"measurement": "Change from baseline in target joint pain score at 24 hours post first dose, Mean", "setting": "[7]", "value": "−2.2"}, {"measurement": "Change from baseline in target joint pain score at 24 hours post first dose, Median", "setting": "[7]", "value": "−2.0"}, {"measurement": "Number of responders (>=50% reduction in target joint pain score, no rescue medication) at 24 hours post first dose", "setting": "High (standard) dose 4.8 mg over 6 h, N = 52, ITT", "value": "17 (32.7) N (%)"}, {"measurement": "Number (%) of patients using rescue medication up to and including the 24-hour post first dose assessment", "setting": "High dose 4.8 mg, N = 52", "value": "18 (34.6) n (%)"}, {"measurement": "Patients with >=0% improvement in target joint pain score at 24 hours post first dose", "setting": "High dose 4.8 mg, N = 52", "value": "52 (100.0%)"}, {"measurement": "Patients with >=10% improvement in target joint pain score at 24 hours post first dose", "setting": "High dose 4.8 mg, N = 52", "value": "32 (61.5%)"}, {"measurement": "Patients with >=20% improvement in target joint pain score at 24 hours post first dose", "setting": "High dose 4.8 mg, N = 52", "value": "29 (55.8%)"}, {"measurement": "Patients with >=30% improvement in target joint pain score at 24 hours post first dose", "setting": "High dose 4.8 mg, N = 52", "value": "21 (40.4%)"}, {"measurement": "Patients with >=40% improvement in target joint pain score at 24 hours post first dose", "setting": "High dose 4.8 mg, N = 52", "value": "21 (40.4%)"}, {"measurement": "Patients with >=50% improvement in target joint pain score at 24 hours post first dose", "setting": "High dose 4.8 mg, N = 52", "value": "19 (36.5%)"}, {"measurement": "Patients with >=60% improvement in target joint pain score at 24 hours post first dose", "setting": "High dose 4.8 mg, N = 52", "value": "15 (28.8%)"}, {"measurement": "Patients with >=70% improvement in target joint pain score at 24 hours post first dose", "setting": "High dose 4.8 mg, N = 52", "value": "10 (19.2%)"}, {"measurement": "Patients with >=80% improvement in target joint pain score at 24 hours post first dose", "setting": "High dose 4.8 mg, N = 52", "value": "9 (17.3%)"}, {"measurement": "Patients with >=90% improvement in target joint pain score at 24 hours post first dose", "setting": "High dose 4.8 mg, N = 52", "value": "6 (11.5%)"}, {"measurement": "Patients with >=100% improvement in target joint pain score at 24 hours post first dose", "setting": "High dose 4.8 mg, N = 52", "value": "6 (11.5%)"}, {"measurement": "Total Pain Relief (TOTPAR) based on all target joint pain scores, Mean", "setting": "[8]", "value": 20.9}, {"measurement": "Total Pain Relief (TOTPAR) based on all target joint pain scores, Median", "setting": "[8]", "value": 11.5}, {"measurement": "Total Pain Relief (TOTPAR) based on all target joint pain scores, Mean", "setting": "[9]", "value": 30.5}, {"measurement": "Total Pain Relief (TOTPAR) based on all target joint pain scores, Median", "setting": "[9]", "value": 23.0}, {"measurement": "Total Pain Relief (TOTPAR) based on all target joint pain scores, Mean", "setting": "[10]", "value": 31.9}, {"measurement": "Total Pain Relief (TOTPAR) based on all target joint pain scores, Median", "setting": "[10]", "value": 27.5}, {"measurement": "Total Pain Relief (TOTPAR) based on all target joint pain scores, Mean", "setting": "[11]", "value": 45.5}, {"measurement": "Total Pain Relief (TOTPAR) based on all target joint pain scores, Median", "setting": "[11]", "value": 34.1}, {"measurement": "Difference between treatment groups in mean change from baseline in target joint pain score at 24 hours, High vs. Low", "setting": "[12]", "value": 0.1}, {"measurement": "Difference between treatment groups in mean change from baseline in target joint pain score at 24 hours, High vs. Placebo", "setting": "[12]", "value": "−1.6"}, {"measurement": "Difference between treatment groups in mean change from baseline in target joint pain score at 24 hours, Low vs. Placebo", "setting": "[12]", "value": "−1.6"}, {"measurement": "Change from baseline in target joint pain score at 24 hours post first dose, Mean", "setting": "[13]", "value": "−2.3"}, {"measurement": "Change from baseline in target joint pain score at 24 hours post first dose, Median", "setting": "[13]", "value": "−2.0"}, {"measurement": "Change from baseline in target joint pain score at 24 hours post first dose, Mean", "setting": "Late treatment start (after 4 hours), Low dose 1.8 mg", "value": "−2.4"}]}
